# ChEMBL document CHEMBL1275412, “Detection of new arr-4 and arr-5 gene cassettes in clinical Pseudomonas aeruginosa and Klebsiella pneumoniae strains from Brazil” (2008)
# Legend:
# Klebsiella pneumoniae [1] = test: Antibacterial activity against Klebsiella pneumoniae K688 with arr-5 gene by Etest method; format: functional
# Klebsiella pneumoniae [2] = test: Antibacterial activity against Klebsiella pneumoniae K830 with arr-5 gene by Etest method; format: functional
# Pseudomonas aeruginosa = test: Antibacterial activity against Pseudomonas aeruginosa PS1111 with arr-4 gene by Etest method; format: functional
# Klebsiella pneumoniae [3] = test: Antibacterial activity against Klebsiella pneumoniae K56 with arr-5 gene by Etest method; format: functional
# Escherichia coli [4] = test: Antibacterial activity against Escherichia coli […] harboring arr-4 gene after 20 hrs by Etest method; format: functional
# Escherichia coli [5] = test: Antibacterial activity against Escherichia coli […] harboring arr-5 gene after 20 hrs by Etest method; format: functional
# Klebsiella pneumoniae [6] = test: Antibacterial activity against Klebsiella pneumoniae ATCC 10031 control strain by Etest method
# Klebsiella pneumoniae [7] = test: Antibacterial activity against Klebsiella pneumoniae K224 with arr-5 gene by Etest method; format: functional
compound,measurement,setting,value
CO[C@H]1/C=C/O[C@@]2(C)Oc3c(C)c(O)c4c(O)c(c(/C=N/N5CCN(C)CC5)c(O)c4c3C2=O)NC(=O)/C(C)=C\C=C\[C@H](C)[C@H](O)[C@@H](C)[C@@H](O)[C@@H](C)[C@H](OC(C)=O)[C@@H]1C [RIFAMPIN],MIC,Klebsiella pneumoniae [1],8 µg/mL
same,MIC,Klebsiella pneumoniae [2],> 32 µg/mL
same,MIC,Pseudomonas aeruginosa,> 32 µg/mL
same,MIC,Klebsiella pneumoniae [3],8 µg/mL
same,MIC,Escherichia coli [4],> 256 µg/mL
same,MIC,Escherichia coli [5],> 256 µg/mL
same,MIC,Klebsiella pneumoniae [6],6 µg/mL
same,MIC,Klebsiella pneumoniae [7],8 µg/mL
